In US3946006A, “Tetrahydrothiadiazinethiones” (Sterling Drug Inc., priority 1974, dated 1976):

Columns and labels:
Assay in all cases: minimal inhibiting concentration (MIC), filter disc agar plate test
Assay type in all cases: cell-based
[1] = system: Candida albicans; settings: C. albicans; Sabouraud agar, three days incubation
Protocol: (§1) The bacteriological effectiveness of the compounds of the invention was determined with reference to minimal inhibiting concentrations, that is, the minimal concentration that will effect complete inhibition of germ growth (MIC). The test procedure is as follows:
(§2) A 1% suspension, botained by homogenizing 500 mg. of the test agent in 50 ml. of 0.5% natrosol solution (natrosol 250 HRPS = hydroxymethylcellulose), is serially diluted with 0.5% natrosol solution to provide suspensions, in sterile test tubes, having concentrations of 0.1, 0.05, 0.01 and 0.005 percent. To ensure accuracy in dilution, the suspensions are mixed with the aid of a mechanical mixer. The dilutions (6 ml.) are added to sterile cups and immediately 10 filter discs (.phi. about 10 mm) are placed on the surface of the liquid in each cup. The filter discs, which slowly sink to the bottom on becoming saturated, are left in the solutions for one hour. 16-Hour old cultures of Escherichia coli, Staphylococcus aureus, Pyoceanus fluorescens and Proteus vulgaris are diluted at the ratio of 1:10 in glucose broth. 1-Week cultures of Penicillium glaucum, Aspergillus niger, Chaetomium globosum, Trichoderma viride, Humicola sp., Scopulariopsis brevicaulis, Pullularia pullulans, Sclerophoma pityophila, Saccharomyces cerevisiae and Candida albicans are harvested by rinsing and diluted 1:10 in nutrient broth.
(§3) Standard II nutrient agar plates, with an addition of lactose and bromothymol blue (BROLAC agar) for bacteria, and Sabouraud agar plates for yeasts and fungi, are dried and labeled (10 Sabouraud agar plates and 4 nutrient agar plates were used per preparation). Of the diluted germ suspensions, 0.05 ml (1 drop) is inoculated onto each plate. Prior to further treatment, the plates are allowed to stand for one-half hour to absorb the germ suspension. Filter discs, corresponding to each of the five dilutions, are placed on the surface of each inoculated plate for each culture (step 1). The plates are examined for zones of inhibition after twenty-four hours incubation in the case of bacteria, and after three days incubation in the case of yeasts and fungi. Antimicrobial activity is indicated by occurance of a zone of inhibition. In the case of bacteria, the purity of the culture can be determined at the same time by lactose fermentation as indicated by color change in the nutrient medium. A visible inhibition ring is designated as negative growth an no inhibition ring as 3+ growth. […] A new dilution series then is prepared, with only one, or at most two, filter discs being placed on the surface of each plate for each culture. Activity is then determined as described above.
(§4) The MIC values, expressed in percent concentration of the test agent, is presented in TAble 1 for compounds of the invention having formula I designated Example 1 (R--O--A = CH2 CH2 OCH3), Example 2 (R--O--A = CH2 CH2 OCH3) and Example 4(R--O--A = CH2 CH2 CH2 OCH2 CH3), and for two known compounds, designated A (3,5-dibenzyl-tetrahydro-2H-1,3,5-thiadiazine-2-thione) and B[3,5-bis(2-hydroxyethyl)-2H-1,3,5-thiadiazine-2-thione].

[2] = system: Sclerophoma pityophila; settings: S. pityophila; Sabouraud agar, three days incubation
Protocol: as §1, §2, §3, §4

[3] = system: Chaetomium globosum; settings: C. globosum; Sabouraud agar, three days incubation
Protocol: as §1, §2, §3, §4

[4] = system: Escherichia coli; settings: E. coli; nutrient agar, 24 hours incubation
Protocol: as §1, §2, §3, §4

[5] = system: Saccharomyces cerevisiae; settings: S. cerevisiae; Sabouraud agar, three days incubation
Protocol: as §1, §2, §3, §4

[6] = system: Penicillium glaucum; settings: P. glaucum; Sabouraud agar, three days incubation
Protocol: as §1, §2, §3, §4

[7] = system: Pyoceanus fluorescens; settings: P. fluorescens; nutrient agar, 24 hours incubation
Protocol: as §1, §2, §3, §4

[8] = system: Staphylococcus aureus; settings: S. aureus; nutrient agar, 24 hours incubation
Protocol: as §1, §2, §3, §4

[9] = system: Trichoderma viride; settings: T. viride; Sabouraud agar, three days incubation
Protocol: as §1, §2, §3, §4

[10] = system: Aspergillus niger; settings: A. niger; Sabouraud agar, three days incubation
Protocol: as §1, §2, §3, §4

[11] = system: Proteus vulgaris; settings: P. vulgaris; nutrient agar, 24 hours incubation
Protocol: as §1, §2, §3, §4

[12] = system: Humicola sp.; settings: Sabouraud agar, three days incubation
Protocol: as §1, §2, §3, §4

[13] = system: Pullularia pullulans; settings: P. pullulans; Sabouraud agar, three days incubation
Protocol: as §1, §2, §3, §4

[14] = system: Scopulariopsis brevicaulis; settings: S. brevicaulis; Sabouraud agar, three days incubation
Protocol: as §1, §2, §3, §4

| Compound | MIC [1] | MIC [2] | MIC [4] | MIC [5] | MIC [6] | MIC [7] | MIC [8] | MIC [10] | MIC [11] | MIC [13] | MIC [3] | MIC [9] | MIC [12] | MIC [14] |
| --- | --- | --- | --- | --- | --- | --- | --- | --- | --- | --- | --- | --- | --- | --- |
| OCCN1CSC(=S)N(CCO)C1 [B, 3,5-bis(2-hydroxyethyl)-2H-1,3,5-thiadiazine-2-thione, reference compound] | 1 % conc. | 0.01 % conc. | 1 % conc. | 0.1 % conc. | 1 % conc. | 0.1 % conc. | 0.05 % conc. | 1 % conc. | 1 % conc. | 0.01 % conc. | 1 % conc. | 1 % conc. | 0.1 % conc. | 0.1 % conc. |
| S=C1SCN(Cc2ccccc2)CN1Cc1ccccc1 [A, 3,5-dibenzyl-tetrahydro-2H-1,3,5-thiadiazine-2-thione, reference compound] | > 1 % conc. | > 1 % conc. | 1 % conc. | > 1 % conc. | > 1 % conc. | 1 % conc. | 1 % conc. | > 1 % conc. | 1 % conc. | > 1 % conc. | > 1 % conc. | > 1 % conc. | > 1 % conc. | > 1 % conc. |

Now from value to molecule, other results behind:

| MIC [1] | MIC [2] | MIC [4] | MIC [5] | MIC [6] | MIC [7] | MIC [8] | MIC [10] | MIC [11] | MIC [13] | Compound | MIC [3] | MIC [9] | MIC [12] | MIC [14] |
| --- | --- | --- | --- | --- | --- | --- | --- | --- | --- | --- | --- | --- | --- | --- |
| 0.05 % conc. | < 0.005 % conc. | 0.1 % conc. | 0.01 % conc. | 0.05 % conc. | 0.1 % conc. | 0.07 % conc. | 0.1 % conc. | 0.1 % conc. | 0.05 % conc. | COCCN1CSC(=S)N(CCOC)C1 [Ex. 2, 3,5-Bis(2-methoxyethyl)-tetrahydro-2H-1,3,5-thiadiazine-2-thione] | 0.01 % conc. | 0.1 % conc. | < 0.005 % conc. | < 0.005 % conc. |
| 0.01 % conc. | < 0.003 % conc. | 0.1 % conc. | < 0.003 % conc. | < 0.003 % conc. | 0.1 % conc. | 0.05 % conc. | < 0.003 % conc. | 0.05 % conc. | < 0.003 % conc. | CCOCCCN1CSC(=S)N(CCCOCC)C1 [Ex. 4, 3,5-Bis(3-ethoxypropyl)-tetrahydro-2H-1,3,5-thiadiazine-2-thione] |  |  |  |  |
| 0.05 % conc. | 0.005 % conc. | 0.1 % conc. | 0.05 % conc. | 0.005 % conc. | 0.1 % conc. | 0.05 % conc. | 0.03 % conc. | 0.1 % conc. | 0.005 % conc. | COCCCN1CSC(=S)N(CCCOC)C1 [Ex. 1, 3,5-Bis(3-methoxypropyl)-tetrahydro-2H-1,3,5-thiadiazine-2-thione] | 0.005 % conc. | 0.03 % conc. | 0.01 % conc. | 0.005 % conc. |
